The source of these data is patent publication US9315503B2, “Kinase inhibitors” (CHIESI FARMACEUTICI S.p.A., priority 2011, dated 2016).

As usually defined, the IC50 is the midpoint of a concentration-inhibition curve.

In one experiment the target is T1, p38alpha (Homo sapiens, UniProt Q16539).
T1 construct: purchased Invitrogen PV3304
Nature of the experiment: P38Alpha enzyme inhibition assay (Alphascreen kinase activity assay). It counts as biochemical. As to conditions: 100 pM p38alpha, 250 μM ATP, 2 hours pre-incubation at 25° C., read-out: p38α inhibition (IC50 values). The gist of the method: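 AlphaScreen read-out: after an EDTA stop, an anti-phospho-ATF2 antibody with Protein A acceptor and donor beads measured substrate phosphorylation. Compounds sat 2 h at 25°C with 100 pM p38α and 0.3 µg/ml ATF-2 fusion protein (pH 7.5, 1% DMSO) before 250 µM ATP was added for 1 h. IC50 from dose-response.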

Experiment [1] concerns LPS-stimulated TNFα release from PBMCs. In words: LPS-stimulated PBMC TNFα release assay. It counts as cell-based. As to conditions: inhibition of TNFα release, human PBMCs, LPS 10 ng/ml, 18 h, ELISA, read-out: p38α inhibition (IC50 values). The procedure: LPS-Stimulated PBMC TNFα Release Assay.
Peripheral Blood Mononuclear Cells (PBMCs) were isolated from healthy human volunteer blood using a standard density gradient centrifugation technique. Citrated blood was placed onto Histopaque™ and centrifuged. The PBMCs were removed from the density gradient interface and washed in phosphate buffered saline (PBS). The PBMCs were suspended in RPMI 1640 medium (without serum), dispensed into a 96-well plate and incubated at 37° C. for 3 h in a humidified incubator. After incubation, the medium was replaced (with medium containing 1% foetal bovine serum) and the plate incubated at 37° C., for 1 h, in the presence of test compound or the appropriate vehicle. LPS (10 ng/ml), or an appropriate vehicle control, was then added to the cells and the plate returned to the incubator for 18 h. Cell-free supernatants were removed and assayed for TNFα levels using an ELISA kit from R&D Systems.
A dose response curve to each test compound was performed and the effect of compound in each experiment was expressed as a percentage inhibition of the control TNFα release. Dose response curves were plotted and compound potency (IC50) was determined. Compounds were tested in at least three separate experiments.
In general terms: An ELISA detects its analyte on a solid surface through an enzyme-linked reagent.

T1 sequence (Q16539 whole entry): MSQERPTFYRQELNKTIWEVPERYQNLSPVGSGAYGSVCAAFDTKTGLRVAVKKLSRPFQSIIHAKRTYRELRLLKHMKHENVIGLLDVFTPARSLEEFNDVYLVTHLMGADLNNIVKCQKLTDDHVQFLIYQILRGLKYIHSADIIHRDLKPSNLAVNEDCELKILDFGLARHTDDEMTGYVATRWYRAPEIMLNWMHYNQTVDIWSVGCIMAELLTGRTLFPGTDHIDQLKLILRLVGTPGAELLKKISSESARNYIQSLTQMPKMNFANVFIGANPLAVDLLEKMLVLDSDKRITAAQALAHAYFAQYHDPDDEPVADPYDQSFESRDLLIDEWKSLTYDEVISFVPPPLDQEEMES

Regarding `Cc1ccc(-n2nc(C(C)(C)C)cc2NC(=O)N[C@H]2CC[C@@H](Oc3ccc4nnc(N5CCC[C@H]5CO)n4c3)c3ccccc32)cc1` [Example 28, 1-(5-tert-Butyl-2-p-tolyl-2H-pyrazol-3-yl)-3-{(1S,4R)-4-[3-((S)-2-hydroxymethyl-pyrrolidin-1-yl)-[1,2,4]triazolo[4,3-a]pyridin-6-yloxy]-1,2,3,4-tetrahydro-naphthalen-1-yl}-urea], the IC50 (at p38alpha; in experiment [1]) was < 0.01 µM throughout.

For `CC(C)(C)c1cc(NC(=O)N[C@H]2CC[C@@H](Oc3ccc4nnc(N5CCCCC5)n4c3)c3ccccc32)n(-c2cccc(CO)c2)n1` [Example 29, 1-[5-tert-Butyl-2-(3-hydroxymethyl-phenyl)-2H-pyrazol-3-yl]-3-[(1S,4R)-4-(3-piperidin-1-yl-[1,2,4]triazolo[4,3-a]pyridin-6-yloxy)-1,2,3,4-tetrahydro-naphthalen-1-yl]-urea], the IC50 (on p38alpha; in experiment [1]) was < 0.01 µM each time.

As to `CCOC(=O)c1cccc(-n2nc(C(C)(C)C)cc2NC(=O)N[C@H]2CC[C@@H](Oc3ccc4nnc([C@@H]5CCCN5C)n4c3)c3ccccc32)c1` [Example 30, 3-[3-tert-Butyl-5-(3-{(1S,4R)-4-[3-((S)-1-methyl-pyrrolidin-2-yl)-[1,2,4]triazolo[4,3-a]pyridin-6-yloxy]-1,2,3,4-tetrahydro-naphthalen-1-yl}-ureido)-pyrazol-1-yl]-benzoic acid ethyl ester], the IC50 (at p38alpha; in experiment [1]) was < 0.01 µM throughout.

As to `CN1CCC[C@H]1c1nnc2ccc(O[C@@H]3CC[C@H](NC(=O)Nc4cc(C(C)(C)C)nn4-c4cccc(CO)c4)c4ccccc43)cn12` [Example 31, 1-[5-tert-Butyl-2-(3-hydroxymethyl-phenyl)-2H-pyrazol-3-yl]-3-{(1S,4R)-4-[3-((S)-1-methyl-pyrrolidin-2-yl)-[1,2,4]triazolo[4,3-a]pyridin-6-yloxy]-1,2,3,4-tetrahydro-naphthalen-1-yl}-urea], the IC50 (at p38alpha; in experiment [1]) was < 0.01 µM in each case.

`CN1CCC[C@H]1c1nnc2ccc(O[C@@H]3CC[C@H](NC(=O)Nc4cc(C(C)(C)C)nn4-c4ccc(CO)cc4)c4ccccc43)cn12` [Example 33, 1-[5-tert-Butyl-2-(4-hydroxymethyl-phenyl)-2H-pyrazol-3-yl]-3-{(1S,4R)-4-[3-((S)-1-methyl-pyrrolidin-2-yl)-[1,2,4]triazolo[4,3-a]pyridin-6-yloxy]-1,2,3,4-tetrahydro-naphthalen-1-yl}urea]: the IC50 (on p38alpha; in experiment [1]) was < 0.01 µM throughout.

In the case of `CC(C)(C)c1cc(NC(=O)N[C@H]2CC[C@@H](Oc3ccc4nnc(N5CCCCC5)n4c3)c3ccccc32)n(-c2ccc(CO)cc2)n1` [Example 34, 1-[5-tert-Butyl-2-(4-hydroxymethyl-phenyl)-2H-pyrazol-3-yl]-3-[(1S,4R)-4-(3-piperidin-1-yl-[1,2,4]triazolo[4,3-a]pyridin-6-yloxy)-1,2,3,4-tetrahydro-naphthalen-1-yl]-urea], the IC50 (at p38alpha; in experiment [1]) was < 0.01 µM throughout.

For the molecule `CN1CCC[C@H]1c1nnc2ccc(O[C@@H]3CC[C@H](NC(=O)Nc4cc(C(C)(C)C)nn4-c4cccc(SCCO)c4)c4ccccc43)cn12` [Example 35, 1-{5-tert-Butyl-2-[3-(2-hydroxy-ethylsulfanyl)-phenyl]-2H-pyrazol-3-yl}-3-{(1S,4R)-4-[3-((S)-1-methyl-pyrrolidin-2-yl)-[1,2,4]triazolo[4,3-a]pyridin-6-yloxy]-1,2,3,4-tetrahydro-naphthalen-1-yl}-urea], the IC50 (on p38alpha; in experiment [1]) was < 0.01 µM throughout.

As to `Cc1ccc(-n2nc(C(C)(C)CO)cc2NC(=O)N[C@H]2CC[C@@H](Oc3ccc4nnc(N5CCCCC5)n4c3)c3ccccc32)cc1` [Example 36, 1-[5-(2-Hydroxy-1,1-dimethyl-ethyl)-2-p-tolyl-2H-pyrazol-3-yl]-3-[(1S,4R)-4-(3-piperidin-1-yl-[1,2,4]triazolo[4,3-a]pyridin-6-yloxy)-1,2,3,4-tetrahydro-naphthalen-1-yl]-urea], the IC50 (on p38alpha; in experiment [1]) was < 0.01 µM each time.

Turning to `CN1CCC[C@H]1c1nnc2ccc(O[C@H]3C[C@H](NC(=O)Nc4cc(C(C)(C)C)nn4-c4ccc(CO)cc4)c4ccccc43)cn12` [Example 37, 1-[5-tert-Butyl-2-(4-hydroxymethyl-phenyl)-2H-pyrazol-3-yl]-3-{(1S,3S)-3-[3-((S)-1-methyl-pyrrolidin-2-yl)-[1,2,4]triazolo[4,3-a]pyridin-6-yloxy]-indan-1-yl}-urea], the IC50 (at p38alpha; in experiment [1]) was < 0.01 µM each time.

Regarding `Cc1ccc(-n2nc(C(C)(C)C)cc2NC(=O)N[C@H]2CC[C@@H](Oc3ccc4nnc(N5CC[C@@H](O)C5)n4c3)c3ccccc32)cc1` [Example 38, 1-(5-tert-Butyl-2-p-tolyl-2H-pyrazol-3-yl)-3-{(1S,4R)-4-[3-((R)-3-hydroxy-pyrrolidin-1-yl)-[1,2,4]triazolo[4,3-a]pyridin-6-yloxy]-1,2,3,4-tetrahydro-naphthalen-1-yl}-urea], the IC50 (at p38alpha; in experiment [1]) was < 0.01 µM throughout.

`CC(C)(C)c1cc(NC(=O)N[C@H]2CC[C@@H](Oc3ccc4nnc(N5CCCCC5)n4c3)c3ccccc32)n(-c2cccc(OCCO)c2)n1` [Example 39, 1-{5-tert-Butyl-2-[3-(2-hydroxy-ethoxy)-phenyl]-2H-pyrazol-3-yl}-3-[(1S,4R)-4-(3-piperidin-1-yl-[1,2,4]triazolo[4,3-a]pyridin-6-yloxy)-1,2,3,4-tetrahydro-naphthalen-1-yl]-urea]: the IC50 (on p38alpha; in experiment [1]) was < 0.01 µM throughout.

Turning to `CN(C)CCOc1cccc(-n2nc(C(C)(C)C)cc2NC(=O)N[C@H]2CC[C@@H](Oc3ccc4nnc(N5CCCCC5)n4c3)c3ccccc32)c1` [Example 40, 1-{5-tert-Butyl-2-[3-(2-dimethylamino-ethoxy)-phenyl]-2H-pyrazol-3-yl}-3-[(1S,4R)-4-(3-piperidin-1-yl-[1,2,4]triazolo[4,3-a]pyridin-6-yloxy)-1,2,3,4-tetrahydro-naphthalen-1-yl]-urea], the IC50 (at p38alpha; in experiment [1]) was < 0.01 µM in each case.

In the case of `CN1CCN(Cc2cccc(-n3nc(C(C)(C)C)cc3NC(=O)N[C@H]3CC[C@@H](Oc4ccc5nnc(N6CCCCC6)n5c4)c4ccccc43)c2)CC1` [Example 41, 1-{5-tert-Butyl-2-[3-(4-methyl-piperazin-1-ylmethyl)-phenyl]-2H-pyrazol-3-yl}-3-[(1S,4R)-4-(3-piperidin-1-yl-[1,2,4]triazolo[4,3-a]pyridin-6-yloxy)-1,2,3,4-tetrahydro-naphthalen-1-yl]-urea], the IC50 (on p38alpha; in experiment [1]) was < 0.01 µM each time.

Consider `CN1CCC[C@H]1c1nnc2ccc(O[C@@H]3CC[C@H](NC(=O)Nc4cc(C(C)(C)C)nn4-c4cccc(OCCO)c4)c4ccccc43)cn12` [Example 42, 1-{5-tert-Butyl-2-[3-(2-hydroxy-ethoxy)-phenyl]-2H-pyrazol-3-yl}-3-{(1S,4R)-4-[3-((S)-1-methyl-pyrrolidin-2-yl)-[1,2,4]triazolo[4,3-a]pyridin-6-yloxy]-1,2,3,4-tetrahydro-naphthalen-1-yl}-urea], for which the IC50 (at p38alpha; in experiment [1]) was < 0.01 µM in each case.
